Numbers after ± are expanded uncertainties.
Experiments:
[1] = refractive index (Na D-line) (dimensionless); mn = molality of the nth substance listed, in mol/kg; conditions: 101 kPa, Liquid, Standard Abbe refractometry
[2] = refractive index (Na D-line) (dimensionless); conditions: 101.33 kPa, Liquid, Standard Abbe refractometry
[3] = refractive index (Na D-line) (dimensionless); wn = mass fraction of the nth substance listed; conditions: 101 kPa, Liquid, Standard Abbe refractometry, w2 = 0

O=S(=O)([O-])[O-].[Cu+2] [copper sulfate] + O
refractive index, [1]
Conditions | 288.15 K | 298.15 K | 308.15 K | 318.15 K
m1 = 0.1346 | 1.33752 ± 0.00041 | 1.33658 ± 0.00041 | 1.33528 ± 0.00041 | 1.33371 ± 0.00041
m1 = 0.3007 | 1.34217 ± 0.00041 | 1.34125 ± 0.00041 | 1.33987 ± 0.00041 | 1.33834 ± 0.00041
m1 = 0.4408 | 1.34604 ± 0.00041 | 1.3451 ± 0.00041 | 1.3436 ± 0.00041 | 1.34204 ± 0.00041
m1 = 0.5896 | 1.35008 ± 0.00041 | 1.34915 ± 0.00041 | 1.34753 ± 0.00041 | 1.34587 ± 0.00041
m1 = 0.7359 | 1.35392 ± 0.00042 | 1.35287 ± 0.00041 | 1.35129 ± 0.00041 | 1.34951 ± 0.00041
m1 = 0.859 | 1.35712 ± 0.00042 | 1.35606 ± 0.00042 | 1.35427 ± 0.00042 | 1.35249 ± 0.00042
m1 = 1.016 | 1.36104 ± 0.00042 | 1.36002 ± 0.00042 | 1.35816 ± 0.00042 | 1.35632 ± 0.00042
m1 = 1.179 | 1.3651 ± 0.00042 | 1.36398 ± 0.00042 | 1.36209 ± 0.00042 | 1.36027 ± 0.00042
m1 = 1.301 | 1.36803 ± 0.00042 | 1.367 ± 0.00042 | 1.365 ± 0.00042 | 1.36305 ± 0.00042
m1 = 1.456 | – | 1.3706 ± 0.00042 | 1.36872 ± 0.00042 | 1.36664 ± 0.00042
m1 = 1.579 | – | – | 1.37162 ± 0.00042 | 1.36952 ± 0.00042
m1 = 1.736 | – | – | – | 1.37296 ± 0.00042
m1 = 1.891 | – | – | – | 1.37632 ± 0.00042
m1 = 2.058 | – | – | – | 1.38013 ± 0.00042

CCO [ethanol]
[2]
Conditions | refractive index
288.15 K | 1.36344 ± 0.00042
298.15 K | 1.35922 ± 0.00042
308.15 K | 1.35477 ± 0.00042
318.15 K | 1.35068 ± 0.00042

O [water] + O=S(=O)([O-])[O-].[Cu+2]
[1], m2 = 0
Conditions | refractive index
288.15 K | 1.33339 ± 0.00041
298.15 K | 1.33248 ± 0.00041
308.15 K | 1.33128 ± 0.00041
318.15 K | 1.32979 ± 0.00041

O=S(=O)([O-])[O-].[Li+].[Li+] [lithium sulfate] + O
refractive index, [1]
Conditions | 288.15 K | 298.15 K | 308.15 K | 318.15 K
m1 = 0.252 | 1.3383 ± 0.00041 | 1.33727 ± 0.00041 | 1.33612 ± 0.00041 | 1.33446 ± 0.00041
m1 = 0.4681 | 1.34212 ± 0.00041 | 1.34096 ± 0.00041 | 1.33987 ± 0.00041 | 1.33812 ± 0.00041
m1 = 0.7337 | 1.34651 ± 0.00041 | 1.34534 ± 0.00041 | 1.34419 ± 0.00041 | 1.3426 ± 0.00041
m1 = 0.9917 | 1.35062 ± 0.00041 | 1.34944 ± 0.00041 | 1.34829 ± 0.00041 | 1.3467 ± 0.00041
m1 = 1.245 | 1.3544 ± 0.00041 | 1.35316 ± 0.00041 | 1.35198 ± 0.00041 | 1.35056 ± 0.00041
m1 = 1.468 | 1.35752 ± 0.00042 | 1.35628 ± 0.00042 | 1.35518 ± 0.00042 | 1.35375 ± 0.00042
m1 = 1.756 | 1.3614 ± 0.00042 | 1.36011 ± 0.00042 | 1.35905 ± 0.00042 | 1.35765 ± 0.00042
m1 = 1.757 | 1.36143 ± 0.00042 | 1.36015 ± 0.00042 | 1.35909 ± 0.00042 | 1.35767 ± 0.00042
m1 = 1.939 | 1.36365 ± 0.00042 | 1.36242 ± 0.00042 | 1.36134 ± 0.00042 | 1.35998 ± 0.00042
m1 = 2.124 | 1.36601 ± 0.00042 | 1.36472 ± 0.00042 | 1.36368 ± 0.00042 | 1.36227 ± 0.00042
m1 = 2.306 | 1.36812 ± 0.00042 | 1.36691 ± 0.00042 | 1.36574 ± 0.00042 | 1.36453 ± 0.00042
m1 = 2.542 | 1.3709 ± 0.00042 | 1.36964 ± 0.00042 | 1.3685 ± 0.00042 | 1.3672 ± 0.00042
m1 = 2.798 | 1.3736 ± 0.00042 | 1.37243 ± 0.00042 | 1.37124 ± 0.00042 | 1.37003 ± 0.00042
m1 = 2.983 | 1.37551 ± 0.00042 | 1.37442 ± 0.00042 | 1.37316 ± 0.00042 | 1.37206 ± 0.00042
m1 = 3.158 | 1.37704 ± 0.00042 | – | – | –
m1 = 3.22 | 1.37774 ± 0.00042 | – | – | –

O [water] + CCO
[3]
Conditions | refractive index
288.15 K | 1.33339 ± 0.00041
298.15 K | 1.33248 ± 0.00041
308.15 K | 1.33128 ± 0.00041
318.15 K | 1.32979 ± 0.00041

From the NIST ThermoML archive (doi:10.1021/je900266h)
